This note sets out measurements from ChEMBL document CHEMBL1132664, “C32-O-phenalkyl ether derivatives of the immunosuppressant ascomycin: a tether length study” (Bioorg Med Chem Lett, 1999).

Structures are written as SMILES.

The species entered for one experiment is Mus musculus. Put plainly: In vitro immunosuppressive activity in murine splenic T cells. As to conditions: T-cell. The format is functional, cell-based.
Experiment [1] addresses Peptidyl-prolyl cis-trans isomerase FKBP1A (Homo sapiens, UniProt P62942). Put plainly: Effective concentration determined was towards FK506 binding protein 12 by competitive binding assay using [3H]-dihydro FK-506 as radioligand.

Peptidyl-prolyl cis-trans isomerase FKBP1A, sequence (P62942 whole entry): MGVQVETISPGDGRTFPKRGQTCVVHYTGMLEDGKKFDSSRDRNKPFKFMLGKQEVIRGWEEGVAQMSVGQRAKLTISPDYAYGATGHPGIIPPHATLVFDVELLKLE

Compound `CC[C@@H]1/C=C(\C)C[C@H](C)C[C@H](OC)[C@H]2O[C@@](O)(C(=O)C(=O)N3CCCC[C@H]3C(=O)O[C@H](/C(C)=C/[C@@H]3CC[C@@H](OC(=O)Cc4ccccc4)[C@H](OC)C3)[C@H](C)[C@@H](O)CC1=O)[C@H](C)C[C@@H]2OC` had an IC50 in the experiment filed under Mus musculus of 3.5 nM.
Consider `CC[C@@H]1/C=C(\C)C[C@H](C)C[C@H](OC)[C@H]2O[C@@](O)(C(=O)C(=O)N3CCCC[C@H]3C(=O)O[C@H](/C(C)=C/[C@@H]3CC[C@@H](Oc4ccccc4)[C@H](OC)C3)[C@H](C)[C@@H](O)CC1=O)[C@H](C)C[C@@H]2OC`, for which, in the experiment filed under Mus musculus, the IC50 was 5.4 nM. Besides, the EC50 in experiment [1] was 12 nM.
In the same order, the values of `CC[C@@H]1/C=C(\C)C[C@H](C)C[C@H](OC)[C@H]2O[C@@](O)(C(=O)C(=O)N3CCCC[C@H]3C(=O)O[C@H](/C(C)=C/[C@@H]3CC[C@@H](OCCCc4ccccc4)[C@H](OC)C3)[C@H](C)[C@@H](O)CC1=O)[C@H](C)C[C@@H]2OC` are 3.5 nM and 32 nM.
Turning to `CC[C@@H]1/C=C(\C)C[C@H](C)C[C@H](OC)[C@H]2O[C@@](O)(C(=O)C(=O)N3CCCC[C@H]3C(=O)O[C@H](/C(C)=C/[C@@H]3CC[C@@H](OCC(O)c4ccccc4)[C@H](OC)C3)[C@H](C)[C@@H](O)CC1=O)[C@H](C)C[C@@H]2OC` (some centres undefined), inhibition in the experiment filed under Mus musculus was half-maximal at 0.18 nM (IC50).
For `C=C(CO[C@@H]1CC[C@@H](/C=C(\C)[C@H]2OC(=O)[C@@H]3CCCCN3C(=O)C(=O)[C@]3(O)O[C@H]([C@@H](OC)C[C@@H](C)C/C(C)=C/[C@@H](CC)C(=O)C[C@H](O)[C@H]2C)[C@@H](OC)C[C@H]3C)C[C@H]1OC)c1ccccc1`, the IC50 in the experiment listed under Mus musculus was 1 nM.
The compound `CC[C@@H]1/C=C(\C)C[C@H](C)C[C@H](OC)[C@H]2O[C@@](O)(C(=O)C(=O)N3CCCC[C@H]3C(=O)O[C@H](/C(C)=C/[C@@H]3CC[C@@H](OCCO)[C@H](OC)C3)[C@H](C)[C@@H](O)CC1=O)[C@H](C)C[C@@H]2OC` gave an IC50 in the experiment listed under Mus musculus of 4.3 nM.
`CC[C@@H]1/C=C(\C)C[C@H](C)C[C@H](OC)[C@H]2O[C@@](O)(C(=O)C(=O)N3CCCC[C@H]3C(=O)O[C@H](/C(C)=C/[C@@H]3CC[C@@H](OCc4ccccc4)[C@H](OC)C3)[C@H](C)[C@@H](O)CC1=O)[C@H](C)C[C@@H]2OC` gave an IC50 in the experiment listed under Mus musculus of 3 nM. In addition, the EC50 in experiment [1] is 5.3 nM.
On the same counts, the results for `CC[C@@H]1/C=C(\C)C[C@H](C)C[C@H](OC)[C@H]2O[C@@](O)(C(=O)C(=O)N3CCCC[C@H]3C(=O)O[C@H](/C(C)=C/[C@@H]3CC[C@@H](OCCc4ccccc4)[C@H](OC)C3)[C@H](C)[C@@H](O)CC1=O)[C@H](C)C[C@@H]2OC` are 0.61 nM and 9.2 nM.
In the case of `CC[C@@H]1/C=C(\C)C[C@H](C)C[C@H](OC)[C@H]2O[C@@](O)(C(=O)C(=O)N3CCCC[C@H]3C(=O)O[C@H](/C(C)=C/[C@@H]3CC[C@@H](OCC(=O)c4ccccc4)[C@H](OC)C3)[C@H](C)[C@@H](O)CC1=O)[C@H](C)C[C@@H]2OC`, the IC50 in the experiment listed under Mus musculus came to 0.27 nM.
With `CC[C@@H]1/C=C(\C)C[C@H](C)C[C@H](OC)[C@H]2O[C@@](O)(C(=O)C(=O)N3CCCC[C@H]3C(=O)O[C@H](/C(C)=C/[C@@H]3CC[C@@H](O)[C@H](OC)C3)[C@H](C)[C@@H](O)CC1=O)[C@H](C)C[C@@H]2OC` [ASCOMYCIN], in the experiment filed under Mus musculus, inhibition was half-maximal at 0.69 nM (IC50).

By IC50 is commonly meant the concentration that inhibits the measured activity by half. Read a low IC50 as inhibition by little substance. As a reminder, the EC50 is the concentration that produces a half-maximal response. Read a high EC50 as lower potency in that assay.
